Experimental data taken from patent US6737383B1, “Herbicidal oxadiazolidines” (priority 1999, dated 2004).

Legend:
bedstraw = experiment: Test B pre/postemergence bedstraw; type: in vivo, Galium aparine
Summary of the method: (§1)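 Response is a visual 0-to-10 score relative to untreated plants, where 0 means no effect and 10 means complete control, taken twelve to sixteen days after application. Treatments went onto soil at planting and onto foliage of 1- to 4-leaf plants, using a surfactant-containing non-phytotoxic solvent.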

blackgrass = experiment: Test B pre/postemergence blackgrass; type: in vivo, Alopecurus myosuroides
Summary of the method: as §1

surinam grass = experiment: Test B pre/postemergence surinam grass; type: in vivo, Brachiaria decumbens
Summary of the method: as §1

cocklebur = experiment: Test B pre/postemergence cocklebur; type: in vivo, Xanthium strumarium
Summary of the method: as §1

corn = experiment: Test B pre/postemergence corn; type: in vivo, Zea mays
Summary of the method: as §1

crabgrass = experiment: Test B pre/postemergence crabgrass; type: in vivo, Digitaria sanguinalis
Summary of the method: as §1

soybean = experiment: Test B pre/postemergence soybean; type: in vivo, Glycine max
Summary of the method: as §1

sugar beet = experiment: Test B pre/postemergence sugar beet; type: in vivo, Beta vulgaris
Summary of the method: as §1

velvetleaf = experiment: Test B pre/postemergence velvetleaf; type: in vivo, Abutilon theophrasti
Summary of the method: as §1

wheat = experiment: Test B pre/postemergence wheat; type: in vivo, Triticum aestivum
Summary of the method: as §1

wild oat = experiment: Test B pre/postemergence wild oat; type: in vivo, Avena fatua
Summary of the method: as §1

purple nutsedge = experiment: Test B pre/postemergence purple nutsedge; type: in vivo, Cyperus rotundus
Summary of the method: as §1

rice = experiment: Test B flood test rice; type: in vivo, Oryza sativa; conditions: Pre-emergence
Summary of the method: (§2)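 Read-out is a visual response score from 0 (no effect) to 10 (complete control), assigned by comparison with untreated controls. Treatment was applied at the 2-leaf stage, and plants stayed in the greenhouse for twelve to sixteen days before scoring.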

smallflower flatsedge = experiment: Test B flood test smallflower flatsedge; type: in vivo, Cyperus difformis; conditions: Pre-emergence
Summary of the method: as §2

duck salad = experiment: Test B flood test duck salad; type: in vivo, Heteranthera limosa; conditions: Pre-emergence
Summary of the method: as §2

bamyardgrass = experiment: Test B flood test barnyardgrass; type: in vivo, Echinochloa crus-galli; conditions: Pre-emergence
Summary of the method: as §2

[1] = Preemergence, Rate 62 g/ha, scale of 0 to 10 where 0 is no effect and 10 is complete control
[2] = Preemergence, Rate 250 g/ha, scale of 0 to 10 where 0 is no effect and 10 is complete control
[3] = Preemergence, Rate 500 g/ha, scale of 0 to 10 where 0 is no effect and 10 is complete control
[4] = Rate 62 g/ha, Postemergence, scale 0 to 10 (0 no effect, 10 complete control)
[5] = Rate 125 g/ha, Postemergence, scale of 0 to 10 where 0 is no effect and 10 is complete control
[6] = Rate 250 g/ha, Postemergence, scale of 0 to 10 where 0 is no effect and 10 is complete control
[7] = Rate 500 g/ha, Postemergence, scale 0 to 10, 0 no effect, 10 complete control
[8] = Rate 1000 g/ha, scale 0 to 10 (0 no effect, 10 complete control)
[9] = Rate 125 g/ha, flood test species, scale 0 to 10 where 0 is no effect and 10 is complete control
[10] = Rate 250 g/ha, flood-test species, scale 0 to 10, 0 is no effect, 10 is complete control
[11] = Rate 500 g/ha, flood test species, scale 0 to 10 (0 no effect, 10 complete control)

Compound: CCN(C(=O)n1oc(=O)n(C(C)C)c1=O)C1CCCCC1 [Compound 309]
- Bedstraw plant response rating (bedstraw; [1]): 0
- Bedstraw plant response rating (0 to 10 scale) (bedstraw; Preemergence, Rate 125 g/ha): 0
- Bedstraw plant response rating (bedstraw; [2]): 0
- Bedstraw plant response rating (bedstraw; [3]): 0
- Bedstraw plant response rating (bedstraw; [4]): 0
- Bedstraw plant response rating (bedstraw; [5]): 0
- Plant response rating, Bedstraw (bedstraw; [6]): 0
- Bedstraw plant response rating (bedstraw; [7]): 0
- Blackgrass plant response rating (blackgrass; [1]): 0
- Blackgrass plant response rating (0 to 10 scale) (blackgrass; Preemergence, Rate 125 g/ha): 0
- Blackgrass plant response rating (blackgrass; [2]): 2
- Blackgrass plant response rating (blackgrass; [3]): 6
- Blackgrass plant response rating (blackgrass; [4]): 0
- Blackgrass plant response rating (blackgrass; [5]): 0
- Plant response rating, Blackgrass (blackgrass; [6]): 0
- Blackgrass plant response rating (blackgrass; [7]): 2
- B. signalgrass plant response rating (surinam grass; [1]): 0
- B. signalgrass plant response rating (0 to 10 scale, 0 is no effect, 10 is complete control) (surinam grass; Preemergence, Rate 125 g/ha): 0
- B. signalgrass plant response rating (surinam grass; [2]): 0
- B. signalgrass plant response rating (surinam grass; [3]): 2
- B. signalgrass plant response rating (surinam grass; [4]): 0
- B. signalgrass plant response rating (surinam grass; [5]): 0
- Plant response rating, B. signalgrass (surinam grass; [6]): 0
- B. signalgrass plant response rating (surinam grass; [7]): 0
- Cocklebur plant response rating (cocklebur; [1]): 0
- Cocklebur plant response rating (0 to 10 scale) (cocklebur; Preemergence, Rate 125 g/ha): 0
- Cocklebur plant response rating (cocklebur; [2]): 0
- Cocklebur plant response rating (cocklebur; [3]): 0
- Cocklebur plant response rating (cocklebur; [4]): 0
- Cocklebur plant response rating (cocklebur; [5]): 0
- Plant response rating, Cocklebur (cocklebur; [6]): 0
- Cocklebur plant response rating (cocklebur; [7]): 0
- Corn plant response rating (corn; [1]): 0
- Corn plant response rating (0 to 10 scale) (corn; Preemergence, Rate 125 g/ha): 0
- Corn plant response rating (corn; [2]): 2
- Corn plant response rating (corn; [3]): 4
- Corn plant response rating (corn; [4]): 0
- Corn plant response rating (corn; [5]): 0
- Plant response rating, Corn (corn; [6]): 0
- Corn plant response rating (corn; [7]): 0
- Crabgrass plant response rating (crabgrass; [1]): 0
- Crabgrass plant response rating (0 to 10 scale) (crabgrass; Preemergence, Rate 125 g/ha): 1
- Crabgrass plant response rating (crabgrass; [2]): 2
- Crabgrass plant response rating (crabgrass; [3]): 6
- Crabgrass plant response rating (crabgrass; [4]): 0
- Crabgrass plant response rating (crabgrass; [5]): 0
- Plant response rating, Crabgrass (crabgrass; [6]): 0
- Soybean plant response rating (soybean; [1]): 0
- Soybean plant response rating (0 to 10 scale) (soybean; Preemergence, Rate 125 g/ha): 0
- Soybean plant response rating (soybean; [2]): 0
- Soybean plant response rating (soybean; [3]): 0
- Soybean plant response rating (soybean; [4]): 2
- Soybean plant response rating (soybean; [5]): 2
- Plant response rating, Soybean (soybean; [6]): 2
- Sugarbeets plant response rating (sugar beet; [1]): 0
- Sugarbeets plant response rating (0 to 10 scale) (sugar beet; Preemergence, Rate 125 g/ha): 0
- Sugarbeets plant response rating (sugar beet; [2]): 0
- Sugarbeets plant response rating (sugar beet; [3]): 0
- Sugarbeets plant response rating (sugar beet; [4]): 0
- Sugarbeets plant response rating (sugar beet; [5]): 0
- Plant response rating, Sugarbeets (sugar beet; [6]): 0
- Velvetleaf plant response rating (velvetleaf; [1]): 0
- Velvetleaf plant response rating (0 to 10 scale) (velvetleaf; Preemergence, Rate 125 g/ha): 0
- Velvetleaf plant response rating (velvetleaf; [2]): 0
- Velvetleaf plant response rating (velvetleaf; [3]): 2
- Velvetleaf plant response rating (velvetleaf; [4]): 0
- Velvetleaf plant response rating (velvetleaf; [5]): 0
- Plant response rating, Velvetleaf (velvetleaf; [6]): 0
- Wheat plant response rating (wheat; [1]): 0
- Wheat plant response rating (0 to 10 scale) (wheat; Preemergence, Rate 125 g/ha): 0
- Wheat plant response rating (wheat; [2]): 0
- Wheat plant response rating (wheat; [3]): 0
- Wheat plant response rating (wheat; [4]): 0
- Wheat plant response rating (wheat; [5]): 0
- Plant response rating, Wheat (wheat; [6]): 0
- Wild oats plant response rating (wild oat; [1]): 0
- Wild oats plant response rating (0 to 10 scale) (wild oat; Preemergence, Rate 125 g/ha): 0
- Wild oats plant response rating (wild oat; [2]): 0
- Wild oats plant response rating (wild oat; [3]): 2
- Wild oats plant response rating (wild oat; [4]): 0
- Wild oats plant response rating (wild oat; [5]): 0
- Plant response rating, Wild oats (wild oat; [6]): 0
- Nutsedge plant response rating (purple nutsedge; [1]): 0
- Nutsedge plant response rating (0 to 10 scale) (purple nutsedge; Preemergence, Rate 125 g/ha): 0
- Nutsedge plant response rating (purple nutsedge; [2]): 0
- Nutsedge plant response rating (purple nutsedge; [3]): 0
- Nutsedge plant response rating (purple nutsedge; [4]): 0
- Nutsedge plant response rating (purple nutsedge; [5]): 0
- Plant response rating, Nutsedge (purple nutsedge; [6]): 0
- Rice plant response rating (rice; [8]): 0
- Rice plant response rating (rice; [9]): 0
- Rice plant response rating (rice; [10]): 0
- Rice plant response rating (rice; [11]): 0
- S. Flatsedge plant response rating (smallflower flatsedge; [8]): 0
- S. Flatsedge plant response rating (smallflower flatsedge; [9]): 0
- S. Flatsedge plant response rating (smallflower flatsedge; [10]): 0
- S. Flatsedge plant response rating (smallflower flatsedge; [11]): 0
- Ducksalad plant response rating (duck salad; [8]): 0
- Ducksalad plant response rating (duck salad; [9]): 0
- Ducksalad plant response rating (duck salad; [10]): 0
- Ducksalad plant response rating (duck salad; [11]): 0
- Barnyardgrass plant response rating (bamyardgrass; [8]): 0
- Barnyardgrass plant response rating (bamyardgrass; [9]): 0
- Barnyardgrass plant response rating (bamyardgrass; [10]): 0
- Barnyardgrass plant response rating (bamyardgrass; [11]): 0
